From patent US12251366B1, “Sulforaphane-cysteine for wound healing in diabetic subjects” (KUWAIT UNIVERSITY, priority 2024, dated 2025)

Tests used:
[1] = tested on: TNF-α; test: Real-time PCR, LPS-induced TNF-α mRNA in peritoneal macrophages; type: cell-based, mouse; details: LPS 100 ng/mL, 1.5 umol/L, RT-PCR
Protocol: Additional tests were conducted to determine whether SFN-Cys also suppresses TNF-α and IL-6 expression at the mRNA level.
Thioglycollate-elicited mouse peritoneal macrophages were prepared from C57BL (8-10 weeks old) and cultured in RPMI 1640 with 10% (v/v) FCS Bone marrow-derived macrophages were generated in RPMI medium containing M-CSF (10 ng/mL) according to previously published procedure. For cytokine ELISA assay, cells were seeded at 5×10^5 in 12-well plates, whereas for mRNA expression, the cells were seeded at […]. LPS and used at a dose of 100 ng/mL. Similarly. SFN-Cys was used at a concentration of 1.5 umol/L.
Total RNA from cells or frozen sponge implants was extracted using the Trizol reagent (Invitrogen), and the RNA integrity was verified by agarose gel electrophoresis. Approximately 1 μg of RNA was reverse transcribed (Superscript II Reverse Transcriptase Kit, Invitrogen) and amplified using the TaqMan Assay on Demand (Applied Biosystems) in a 25 μL reaction volume containing two unlabeled primers, a 6-carboxyfluorescien-labeled TaqMan MGB probe and the master mix. The amplified sequences were assessed using the ABI 7500 Prism Sequence Detection system machine. The results were expressed as mRNA levels normalized to 18S or GAPDH in each sample.

[2] = tested on: wound fibroblasts (DF, CF-GP); test: Cell viability assay, H2O2 cytotoxicity in wound fibroblasts; type: cell-based, rat; details: 1.5 to 5 μM
Protocol: To determine if SFN-Cys is involved in cellular detoxification of oxidant load, wound fibroblasts derived from the granulation tissue of control and diabetic animals with H2O2 were measured for their abilities to survive acute oxidative stress in the presence or absence of SFN-Cys. […] Moreover, CF exposed for 72 hours to high glucose (25 mmole/L and palmitate 200 μmole/L, CF-GP) to mimic the diabetic state produced analogous results to those seen with DF as illustrated in FIG. 2A. Supplementing DF and CF-GP with SFN-Cys at a dose of 1.5 to 5 μM eliminated the reactive oxygen species difference between these cells and enhanced DF and CF-GP resistance to H2O2(FIG. 2A).
Control and diabetic fibroblasts were isolated from wounds inflicted on control Wistar rats (CF) or Goto kakazaki rats (GK), a model of non-obese type 2 diabetes. All information regarding the GK rats and the preparation and culturing of control (CF) and diabetic (DF) fibroblasts was described in detailed in previous publications, Bitar, M S, and Mulla, F. Am J Phyaiol. […]
The response of CF and DF to H2O2 cytotoxicity was measured by seeding the cells into 96-well plates at a density of 5×10^3 to 8×10^3 cells per well and were allowed to adhere overnight in 10% FCS-DMEM medium. […] Cell viability was measured using WST-1 (Dojindo, USA;) according to the manufacturer's instructions.

[3] = tested on: transforming growth factor beta (TGF-β); test: TGF-β expression (cardiac fibrosis); type: in vivo
Source text: (§1) Therapeutic rational was considered for SFN-Cys effectiveness in the following pathological conditions: Sarcopenia-SFN-Cys increased muscle weight in diabetic mice, see FIGS. 4A and 4B; Cardiac fibrosis-SFN-Cys inhibits transforming growth factor beta (TGF-β) expression, see FIG. 4C; Erectile dysfunction-SFN-Cys increased endothelial nitric oxide activity and expression in corpus cavernosum.

[4] = tested on: fibroblasts (CF, DF); test: In vitro wound healing repair assay (cell migration); type: cell-based, rat; details: 1.5 μM, 24 hrs
Protocol: Successful wound healing necessitates a series of tightly coordinated and overlapping processes including inflammation, new tissue formation and remodeling. Fibroblasts, in response to growth factors-released mostly by macrophages, migrate to the site of injury, where they proliferate and lay down the extracellular matrix (ECM). Consequently, this facilitates cell migration and tissue reconstruction. The effect of a therapeutic concentration of SFN-Cys (1.5 μM) was investigated on the proliferation of fibroblasts isolated from the granulation tissue of control and diabetic wounds. Similarly, the effect of SFN-Cys on cell migration in the in vitro wound closure assay was also considered. […] Accordingly, in vivo wound closure properties of SFN-Cys were examined using an excisional wound healing rat model. SFN-Cys containing Pluronic acid was topically applied to the wound at a dose of 1.5 μmol concentration and the wound closure area was digitally photographed and quantified. Digital photographs were obtained on day-0 through day-7 of post wounding. […] In this context, the wound healing time-course was faster in SFN-Cys containing Pluronic acid than the Pluronic acid alone (FIG. 3C). […]
Fibroblasts (1×10^5/well) were cultured until confluence. […] The closure of the wounded area was calculated using Image J software (NIH). Data are expressed as a percent of wound closure.

[5] = tested on: fibroblasts (CF, DF); test: Proliferation of fibroblasts from control and diabetic wounds; type: cell-based, rat; details: 1.5 μM
Protocol: Successful wound healing necessitates a series of tightly coordinated and overlapping processes including inflammation, new tissue formation and remodeling. Fibroblasts, in response to growth factors-released mostly by macrophages, migrate to the site of injury, where they proliferate and lay down the extracellular matrix (ECM). Consequently, this facilitates cell migration and tissue reconstruction. The effect of a therapeutic concentration of SFN-Cys (1.5 μM) was investigated on the proliferation of fibroblasts isolated from the granulation tissue of control and diabetic wounds. Similarly, the effect of SFN-Cys on cell migration in the in vitro wound closure assay was also considered. […] Accordingly, in vivo wound closure properties of SFN-Cys were examined using an excisional wound healing rat model. SFN-Cys containing Pluronic acid was topically applied to the wound at a dose of 1.5 μmol concentration and the wound closure area was digitally photographed and quantified. Digital photographs were obtained on day-0 through day-7 of post wounding. […] In this context, the wound healing time-course was faster in SFN-Cys containing Pluronic acid than the Pluronic acid alone (FIG. 3C). […] VEGF is a well-established enhancer of the proliferative phase of healing. […]

[6] = Muscle weight in diabetic mice (sarcopenia); type: in vivo
Source text: as §1

C[S+]([O-])CCCCNC(=S)SCC(N)C(=O)O (centres unmarked) [SFN-Cys, Sulforaphane-Cysteine]
LPS-induced TNF-α mRNA up-regulation [1]: significantly inhibited | reactive oxygen species difference between DF/CF-GP and control fibroblasts [2]: eliminated | resistance to H2O2 (cell viability) ([2]; DF and CF-GP, H2O2 400 μmol/L 4 hours, WST-1): enhanced | TGF-β expression [3]: inhibits | percentage of increase in cell migration, diabetics versus controls [4]: greater in diabetics as compared to controls | cell migration (in vitro wound closure) ([4]; CF and DF): enhanced cell migration not only in control but also in diabetic fibroblasts | cell proliferation [5]: enhanced cell proliferation in both CF and DF | muscle weight [6]: increased
